Values joined by “and” are separate entries in the source; they are usually repeats but may differ in a detail not shown here. Identical values can stand only once.
How the values were obtained:
[1] = test system: creatininase (BBI Solutions); assay: BBI Solutions Creatininase Enzyme Absorbance with BSA and Proclin 300; assay type: biochemical
From the text: Absorbance measurements of the creatininase enzyme(s) were taken via spectrophotometer for each aqueous solution (represented as columns 1-5 in Tables 5-8—column 6 is a blank), the absorbance being directly proportional to the enzyme activity being measured-which for Tables 5-8 is creatininase enzyme activity. Accordingly, the higher the absorbance measurement, the higher the enzyme activity of creatininase. […] In addition, the mean values, standard deviations, and coefficients of variation are all presented for the enzyme activity/absorbance of each aqueous solution. All measurements were taken at 37° C.

[2] = test system: sarcosine oxidase (Toyobo); assay: Toyobo Sarcosine Oxidase Enzyme Absorbance with BSA and MIT; assay type: biochemical; conditions: Day 0; for Sarcosine Oxidase Enzyme Absorbance, MEAN of 7-11 / Sarcosine Oxidase Enzyme Absorbance, replicates 7-11 / Sarcosine Oxidase Enzyme Absorbance, MEAN of 1-5 / Sarcosine Oxidase Enzyme Absorbance, solutions 1-5: 37° C.; for % Bias: 50 ppm MIT vs no MIT; for Sarcosine Oxidase Enzyme Absorbance, MEAN of 1-5 / Sarcosine Oxidase Enzyme Absorbance, solutions 1-5: 50 ppm MIT
Description: Tables 1-4 depict aqueous solutions comprising varying concentrations of BSA (at concentrations of 0 mg/mL, 5 mg/mL, 25 mg/mL, and 50 mg/mL), varying concentrations of MIT (at concentrations of 50 parts per million and 100 parts per million) or Proclin™ 300 (at concentrations of 0.7% and 1.4%) biocides over a particular time period (measurements were taken at days 0, 4, and 14 after exposure of the enzyme(s) to the aqueous solutions) and the associated enzyme absorbance measurements for sarcosine oxidase (commercially offered for sale by BBI Solutions and Toyobo). Absorbance measurements of the sarcosine oxidase enzyme(s) were taken via spectrophotometer for each aqueous solution (represented as columns 1-5 in Tables 1-4—column 6 is a blank), the absorbance being directly proportional to the enzyme activity being measured-which for Tables 1-4 is sarcosine oxidase enzyme activity. Accordingly, the higher the absorbance measurement, the higher the enzyme activity of sarcosine oxidase. Columns 7-11 represent five replicate readings in which the aqueous solution only contains BSA (i.e., there is no biocide(s) present in the aqueous solution). In addition, the mean values, standard deviations, and coefficients of variation are also presented for the enzyme activity/absorbance of each aqueous solution. All measurements were taken at 37° C.
As depicted below in Table 2, sarcosine oxidase (commercially offered for sale by Toyobo) enzyme activity is measured against various concentrations of MIT (biocide) and BSA (scavenger protein) over a period of 14 days (with absorbance measurements taken at 0, 4, and 14 days) for five different aqueous solutions (represented as columns 1-5-column 6 is a blank).

[3] = Day 0, BSA 5 mg/mL only, no Proclin 300, listed as of 0.7% Proclin 300
[4] = Day 0, BSA 5 mg/mL only, no Proclin 300, listed as of 1.4% Proclin 300
[5] = Day 0, BSA 25 mg/mL only, no Proclin 300, listed as of 0.7% Proclin 300
[6] = Day 0, BSA 25 mg/mL only, no Proclin 300, listed as of 1.4% Proclin 300
[7] = Day 0, BSA 50 mg/mL only, no Proclin 300, listed as of 0.7% Proclin 300
[8] = Day 0, BSA 50 mg/mL only, no Proclin 300, listed as of 1.4% Proclin 300
[9] = Day 4, BSA 5 mg/mL only, no Proclin 300, listed as of 0.7% Proclin 300
[10] = Day 4, BSA 5 mg/mL only, no Proclin 300, listed as of 1.4% Proclin 300
[11] = Day 4, BSA 25 mg/mL only, no Proclin 300, listed as of 0.7% Proclin 300
[12] = Day 4, BSA 25 mg/mL only, no Proclin 300, listed as of 1.4% Proclin 300
[13] = Day 4, BSA 50 mg/mL only, no Proclin 300, listed as of 0.7% Proclin 300
[14] = Day 4, BSA 50 mg/mL only, no Proclin 300, listed as of 1.4% Proclin 300
[15] = Day 14, BSA 5 mg/mL only, no Proclin 300, listed as of 0.7% Proclin 300
[16] = Day 14, BSA 5 mg/mL only, no Proclin 300, listed as of 1.4% Proclin 300
[17] = Day 14, BSA 25 mg/mL only, no Proclin 300, listed as of 0.7% Proclin 300
[18] = Day 14, BSA 25 mg/mL only, no Proclin 300, listed as of 1.4% Proclin 300
[19] = Day 14, BSA 50 mg/mL only, no Proclin 300, listed as of 0.7% Proclin 300
[20] = Day 14, BSA 50 mg/mL only, no Proclin 300, listed as of 1.4% Proclin 300
[21] = 5 mg/mL BSA only, no MIT (50 ppm MIT row)
[22] = 5 mg/mL BSA only, no MIT (100 ppm MIT row)
[23] = 25 mg/mL BSA only, no MIT (50 ppm MIT row)
[24] = 25 mg/mL BSA only, no MIT (100 ppm MIT row)
[25] = 50 mg/mL BSA only, no MIT (50 ppm MIT row)
[26] = 50 mg/mL BSA only, no MIT (100 ppm MIT row)

With bovine serum albumin [BSA] the “Absorbance, solutions 7-11” value [1, 3] was 0.658 and 0.656 and 0.654 and 0.693 and 0.67, the “MEAN absorbance, solutions 7-11” value [1, 3] was 0.45 and the “Absorbance, solutions 7-11” value [1, 4] was 0.65 and 0.644 and 0.679 and 0.656 and 0.652. The “MEAN absorbance, solutions 7-11” value [1, 4] was 0.44, the “Absorbance, solutions 7-11” value [1, 5] was 0.669 and 0.654 and 0.645 and 0.676 and 0.685 and the “MEAN absorbance, solutions 7-11” value [1, 5] was 0.45. The “Absorbance, solutions 7-11” value [1, 6] was 0.613 and 0.607 and 0.624 and 0.644 and 0.627, the “MEAN absorbance, solutions 7-11” value [1, 6] was 0.41 and the “Absorbance, solutions 7-11” value [1, 7] was 0.682 and 0.675 and 0.716. For the same substance, the “MEAN absorbance, solutions 7-11” value [1, 7] was 0.48, the “Absorbance, solutions 7-11” value [1, 8] was 0.593 and 0.598 and 0.617 and 0.624 and 0.606 and the “MEAN absorbance, solutions 7-11” value [1, 8] was 0.39. The “Absorbance, solutions 7-11” value [1, 9] was 0.886 and 0.907 and 0.938 and 0.922 and 0.893, the “MEAN absorbance, solutions 7-11” value [1, 9] was 0.69 and the “Absorbance, solutions 7-11” value [1, 10] was 0.863 and 0.829 and 0.895 and 0.929 and 0.882. The “MEAN absorbance, solutions 7-11” value [1, 10] was 0.65, the “Absorbance, solutions 7-11” value [1, 11] was 0.783 and 0.769 and 0.787 and 0.807 and the “MEAN absorbance, solutions 7-11” value [1, 11] was 0.56. The “Absorbance, solutions 7-11” value [1, 12] was 0.757 and 0.715 and 0.735 and 0.756 and 0.767, the “MEAN absorbance, solutions 7-11” value [1, 12] was 0.52 and the “Absorbance, solutions 7-11” value [1, 13] was 0.671 and 0.651 and 0.656 and 0.677 and 0.657. The “MEAN absorbance, solutions 7-11” value [1, 13] was 0.44, the “Absorbance, solutions 7-11” value [1, 14] was 0.671 and 0.657 and 0.676 and 0.674 and 0.645 and the “MEAN absorbance, solutions 7-11” value [1, 14] was 0.44. The “Absorbance, solutions 7-11” value [1, 15] was 0.993 and 0.992 and 0.972 and 1.009, the “MEAN absorbance, solutions 7-11” value [1, 15] was 0.76 and the “Absorbance, solutions 7-11” value [1, 16] was 0.987 and 0.959 and 0.967 and 1.007 and 0.986. For the same substance, the “MEAN absorbance, solutions 7-11” value [1, 16] was 0.75, the “Absorbance, solutions 7-11” value [1, 17] was 0.841 and 0.843 and 0.815 and 0.846 and 0.808 and the “MEAN absorbance, solutions 7-11” value [1, 17] was 0.60. For the same substance, the “Absorbance, solutions 7-11” value [1, 18] was 0.825 and 0.799 and 0.805 and 0.829 and 0.817, the “MEAN absorbance, solutions 7-11” value [1, 18] was 0.59 and the “Absorbance, solutions 7-11” value [1, 19] was 0.672 and 0.653 and 0.659 and 0.682 and 0.685. For the same substance, the “MEAN absorbance, solutions 7-11” value [1, 19] was 0.44, the “Absorbance, solutions 7-11” value [1, 20] was 0.652 and 0.643 and 0.64 and 0.67 and 0.655 and the “MEAN absorbance, solutions 7-11” value [1, 20] was 0.42. For the same substance, the “absorbance of the creatininase enzyme compared to samples containing 0 mg/mL of BSA” value ([1]; day 4, Proclin 300 0.7%, 5, 25 and 50 mg/mL BSA) was “mild increase”, the “creatininase absorbance, solutions 7-11” value ([1]; days 4 and 14, only BSA, no Proclin 300) was “increased (or at least maintained)” and the “Sarcosine Oxidase Enzyme Absorbance, MEAN of 7-11” value [2, 21] was 1.41. For the same substance, the “Sarcosine Oxidase Enzyme Absorbance, replicates 7-11” value [2, 21] was 1.444 and 1.45 and 1.459 and 1.485 and 1.463, the “Sarcosine Oxidase Enzyme Absorbance, MEAN of 7-11” value [2, 22] was 1.39 and the “Sarcosine Oxidase Enzyme Absorbance, replicates 7-11” value [2, 22] was 1.459 and 1.421 and 1.427 and 1.439 and 1.436. The “Sarcosine Oxidase Enzyme Absorbance, MEAN of 7-11” value [2, 23] was 1.40, the “Sarcosine Oxidase Enzyme Absorbance, replicates 7-11” value [2, 23] was 1.448 and 1.453 and 1.45 and 1.442 and 1.444 and the “Sarcosine Oxidase Enzyme Absorbance, MEAN of 7-11” value [2, 24] was 1.38. For the same substance, the “Sarcosine Oxidase Enzyme Absorbance, replicates 7-11” value [2, 24] was 1.447 and 1.422 and 1.418 and 1.443 and 1.413, the “Sarcosine Oxidase Enzyme Absorbance, MEAN of 7-11” value [2, 25] was 1.35 and the “Sarcosine Oxidase Enzyme Absorbance, replicates 7-11” value [2, 25] was 1.387 and 1.402 and 1.388 and 1.408 and 1.406. For the same substance, the “Sarcosine Oxidase Enzyme Absorbance, MEAN of 7-11” value [2, 26] was 1.38, the “Sarcosine Oxidase Enzyme Absorbance, replicates 7-11” value [2, 26] was 1.437 and 1.434 and 1.424 and 1.423 and 1.416 and the “% Bias” value ([2]; 5 mg/mL BSA) was −0.3%. The “% Bias” value ([2]; 25 mg/mL BSA) was −1.0%, the “% Bias” value ([2]; 50 mg/mL BSA) was 2.4% and the “Sarcosine Oxidase Enzyme Absorbance, MEAN of 1-5” value ([2]; 5 mg/mL BSA) was 1.41. For the same substance, the “Sarcosine Oxidase Enzyme Absorbance, solutions 1-5” value ([2]; 5 mg/mL BSA) was 1.445 and 1.446 and 1.443 and 1.456 and 1.457, the “Sarcosine Oxidase Enzyme Absorbance, MEAN of 1-5” value ([2]; 25 mg/mL BSA) was 1.39 and the “Sarcosine Oxidase Enzyme Absorbance, solutions 1-5” value ([2]; 25 mg/mL BSA) was 1.432 and 1.423 and 1.425 and 1.431 and 1.427.

Source: US11339419B2, “Scavenger protein(s) for improved preservation of analyte detection sensor(s) and method(s) of use thereof” (Siemens Healthcare Diagnostics Inc., priority 2017, dated 2022)
